Source: PubChem BioAssay AID2060502 (Molecular Pharmacology Branch, DTP, NCI, 2025)

Test system: 885724-159-R-J1-PDC complex spheroid viability
Assay: Anticancer human tumor 885724-159-R-J1-PDC patient-derived pancreatic adenocarcinoma cell line growth inhibition [GQUAD]
Details: for IC50: curve of first compound; for viability, T/C: stronger effect = lower value; active = viability on the fitted dose curve at most 10% of control; inactive = the rest
From the text: DNA G-quadruplex Stabilizer Agents in Combinations in Complex Spheroids
A high-throughput screen of multi-cell type tumor spheroids was designed to identify active combinations of DNA G-quadruplex stabilizer agents and targeted small molecules. Complex spheroids include a stromal component modeled by human endothelial cells (HUVEC) and fibroblasts modeled by human mesenchymal stem cells (MSCs). The concentration ranges selected for each drug and investigational agent were based upon clinically achievable concentrations if the clinical Cmax of the agent was known.
Compounds. The drugs and investigational agents: pidnarulex (CX-5461; NSC782164), APTO-253 (NSC789042), BRACO-19 (NSC847499), peposertib (NSC802822), ceralasertib (NSC780249), elimusertib (NSC800525), camonsertib (NSC841442), AZD-1390 (NSC803789), olaparib (NSC753686), talazoparib (NSC767125), ART-558 (NSC835418), sotorasib (NSC818433), MRTX-1133 (NSC836407), SN-38 (NSC673596), topotecan (NSC609699), etoposide (NSC141540), doxorubicin (NSC123127), gemcitabine (NSC613327), 5-fluorouracil (NSC19893), paclitaxel (NSC125973), vemurafenib (NSC761431), panobinostat (NSC761190), R-306465 (JNJ-16241199; NSC773264), adavosertib (NSC754352), TP-3654 (NSC805149), carboplatin (NSC241240), KSQ-4279 (NSC840948), and staurosporine (NSC755774) were obtained from the National Cancer Institute (NCI) Developmental Therapeutics Program Chemical Repository (34). The FDA-approved anticancer drug set is available from the NCI Developmental Therapeutics Program. […] The stock solutions were prepared in dimethyl sulfoxide (DMSO, Sigma-Aldrich, St. Louis, MO, cat. D2650) at 800-fold the tested concentration and stored at -70 degrees C prior to their use. All drugs and investigational agents were tested over a range starting from a high concentration at or near the clinical Cmax and decreasing in half-log increments. If the clinical Cmax for an agent had not been determined, the highest concentration tested was 10 microM.
2.3 Cell Culture. All cells were maintained in an incubator at 37 degrees C and 5% CO2 with 95% humidity. The PDC lines were cultured according to standard operating procedures established by the NCI PDMR. All PDCs were thawed and cultured in Matrigel-coated flasks prepared with a working solution of 1X Ham's F-12 nutrient mix, without supplementation (Invitrogen, cat. 11765054), 100 U/mL penicillin-streptomycin (Invitrogen, cat. 15140122), and 2.5% Matrigel (Corning Inc., cat. 354248) for the first three passages. The 857933-349-R-J2-PDC line was cultured in 6C/Colon 1B media, which includes advanced DMEM/F-12 (Thermo Fisher Scientific, cat. 12634028), 10 mM HEPES (Thermo Fisher Scientific, cat. 15630080), 1X GlutaMAX supplement (Thermo Fisher Scientific, cat. 35050061), 0.1 mg/mL primocin (InvivoGen, cat. ant-pm-2), 10% defined fetal bovine serum, heat inactivated (HyClone Laboratories Inc., cat. SH30070.03HI), 50% L-WRN conditioned media (ATCC, cat. CRL-3276), 1.25 mM N-Acetyl-L-cysteine (Sigma-Aldrich, cat. A9165), 10 mM nicotinamide (Sigma-Aldrich, cat. N0636), 1X B-27 supplement (Thermo Fisher Scientific, cat. 17504044), 1X N-2 supplement (Thermo Fisher Scientific, cat. 17502048), 10 microM Y-27632 dihydrochloride (Tocris Bioscience, cat. 1254), and 50 ng/mL human EGF recombinant protein (Thermo Fisher Scientific, cat. PHG0311). The 485176-168-R4-J1-PDC line was cultured in Panc media, which includes all 6C/Colon 1B media components plus 100 ng/mL human FGF-10 (Thermo Fisher Scientific, cat. 100-26), 500 nM SB-431542 (Selleckchem, cat. S1067), and gastrin (Tocris, cat. 3006).
[…]

[1] = second compound 0.0316 µM, first compound 0.0316 µM
[2] = second compound 0.0316 µM, first compound 0.1 µM
[3] = second compound 0.0316 µM, first compound 0.316 µM
[4] = second compound 0.0316 µM, first compound 1 µM
[5] = second compound 0.0316 µM, first compound 3.16 µM
[6] = second compound 0.0316 µM, first compound 10 µM
[7] = second compound 0.1 µM, first compound 0.0316 µM
[8] = second compound 0.1 µM, first compound 0.1 µM
[9] = second compound 0.1 µM, first compound 0.316 µM
[10] = second compound 0.1 µM, first compound 1 µM
[11] = second compound 0.1 µM, first compound 3.16 µM
[12] = second compound 0.1 µM, first compound 10 µM
[13] = second compound 0.316 µM, first compound 0.0316 µM
[14] = second compound 0.316 µM, first compound 0.1 µM
[15] = second compound 0.316 µM, first compound 0.316 µM
[16] = second compound 0.316 µM, first compound 1 µM
[17] = second compound 0.316 µM, first compound 3.16 µM
[18] = second compound 0.316 µM, first compound 10 µM
[19] = second compound 1 µM, first compound 0.0316 µM
[20] = second compound 1 µM, first compound 0.1 µM
[21] = second compound 1 µM, first compound 0.316 µM
[22] = second compound 1 µM, first compound 1 µM
[23] = second compound 1 µM, first compound 3.16 µM
[24] = second compound 1 µM, first compound 10 µM
[25] = second compound 3.16 µM, first compound 0.0316 µM
[26] = second compound 3.16 µM, first compound 0.1 µM
[27] = second compound 3.16 µM, first compound 0.316 µM
[28] = second compound 3.16 µM, first compound 1 µM
[29] = second compound 3.16 µM, first compound 3.16 µM
[30] = second compound 3.16 µM, first compound 10 µM
[31] = second compound 10 µM, first compound 0.0316 µM
[32] = second compound 10 µM, first compound 0.1 µM
[33] = second compound 10 µM, first compound 0.316 µM
[34] = second compound 10 µM, first compound 1 µM
[35] = second compound 10 µM, first compound 3.16 µM
[36] = second compound 10 µM, first compound 10 µM
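Note: spheroids exposed to agents for seven days before readout.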
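Throughout, for viability, T/C: percent of vehicle control viability where 100% = DMSO wells.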

CC(C)n1c(=O)n(C)c2cnc3cc(F)c(-c4ccc(OCCCN5CCCCC5)nc4)cc3c21 + CN(C)c1ccc(Nc2c3ccc(NC(=O)CCN4CCCC4)cc3nc3cc(NC(=O)CCN4CCCC4)ccc23)cc1
7.97 µM: IC50 (second compound 3.16 µM)
> 10 µM: IC50 (second compound 0.0316 µM) | IC50 (second compound 0.1 µM) | IC50 (second compound 0.316 µM) | IC50 (second compound 1 µM)
inactive: viability, T/C [1] 105% | viability, T/C [2] 111% | viability, T/C [3] 100% | viability, T/C [4] 91.7% | viability, T/C [5] 97% | viability, T/C [6] 56% | viability, T/C [7] 109% | viability, T/C [8] 107% | viability, T/C [9] 112% | viability, T/C [10] 101% | viability, T/C [11] 88.2% | viability, T/C [12] 68.2% | viability, T/C [13] 107% | viability, T/C [14] 101% | viability, T/C [15] 92.2% | viability, T/C [16] 91.3% | viability, T/C [17] 85.2% | viability, T/C [18] 56.2% | viability, T/C [19] 92.6% | viability, T/C [20] 83.4% | viability, T/C [21] 101% | viability, T/C [22] 82.7% | viability, T/C [23] 74.5% | viability, T/C [24] 54.3% | viability, T/C [25] 83.7% | viability, T/C [26] 80.2% | viability, T/C [27] 86.4% | viability, T/C [28] 64.1% | viability, T/C [29] 66.6% | viability, T/C [30] 46% | viability, T/C [31] 78.7% | viability, T/C [32] 84.5% | viability, T/C [33] 60.3% | viability, T/C [34] 55.1% | viability, T/C [35] 33.3%
1.2 µM: IC50 (second compound 10 µM)
active: viability, T/C [36] 7.2%

CC1COCCN1c1cc(-c2ccnn2C)c2ccnc(-c3ccn[nH]3)c2n1 (centres undefined) + CN(C)c1ccc(Nc2c3ccc(NC(=O)CCN4CCCC4)cc3nc3cc(NC(=O)CCN4CCCC4)ccc23)cc1
inactive: viability, T/C [1] 91.5% | viability, T/C [2] 85.6% | viability, T/C [3] 71.7% | viability, T/C [4] 65% | viability, T/C [5] 53.7% | viability, T/C [6] 48.7% | viability, T/C [7] 99.8% | viability, T/C [8] 87% | viability, T/C [9] 70.9% | viability, T/C [10] 67% | viability, T/C [11] 48.1% | viability, T/C [12] 51.9% | viability, T/C [13] 95.7% | viability, T/C [14] 76.4% | viability, T/C [15] 86.9% | viability, T/C [16] 64.5% | viability, T/C [17] 52.7% | viability, T/C [18] 48.6% | viability, T/C [19] 86.8% | viability, T/C [20] 68.5% | viability, T/C [21] 63.8% | viability, T/C [22] 53.6% | viability, T/C [23] 50% | viability, T/C [24] 42.1% | viability, T/C [25] 87.5% | viability, T/C [26] 74.8% | viability, T/C [27] 72.7% | viability, T/C [28] 54.9% | viability, T/C [29] 41.8% | viability, T/C [30] 39.5% | viability, T/C [31] 74.2% | viability, T/C [32] 72.3% | viability, T/C [33] 52.8% | viability, T/C [34] 59.5% | viability, T/C [35] 39% | viability, T/C [36] 36.2%
1.28 µM: IC50 (second compound 10 µM)
> 10 µM: IC50 (second compound 0.316 µM)
2.12 µM: IC50 (second compound 1 µM)
8.81 µM: IC50 (second compound 0.1 µM)
1.68 µM: IC50 (second compound 3.16 µM)
7.55 µM: IC50 (second compound 0.0316 µM)
